Measurements as given in patent US20250144066A1, “Prevention and Treatment of Parasitic Infections” (priority 2017, published 2025).
Values after ≈ are worked out from the molar mass of the structure shown.

Columns and labels:
[1] = NR toxicity in HG23 cells (17-14); assay type: cell-based; conditions: human, HG23 cells, NR (Tox)
Source text: Secondary testing was done with human norovirus.

[2] = in vitro; conditions: African green monkey
[3] = Neutral Red toxicity in Vero 76 cells, 4 h pre-incubation (Zika-138); conditions: monkey
[4] = tested on: MDCK; conditions: Neutral Red (Toxicity)
[5] = Toxicity in A549 cells (ADV-0172); assay type: cell-based; conditions: human, A549 cells
[6] = tested on: Zika Virus; experiment: Zika prevention, CPE inhibition (Neutral Red), Vero 76, 4 h pre-incubation (Zika-138); assay type: cell-based; conditions: Zika virus, Neutral Red (Cytopathic effect), pre-incubated 4 hours prior to infection, read-out: EC50

COc1c(C)c2c(c(O)c1C/C=C(\C)CCC(=O)O)C(=O)OC2 [EP1601, 6-(4-hydroxy-6-methoxy-7-methyl-3-oxo-1,3-dihydroisobenzofuran-5-yl)-4-methyl-hex-4-enoic acid]
CC50 [1]: 64 µM
CC50 [2]: > 100 µg/mL
CC50 [3]: > 100 µg/mL
CC50 [4]: > 100 µM
CC50 ([5]; Neutral Red (Toxicity)): 12 µg/mL (≈ 37.5 µM)
CC50 ([5]; Visual (Toxicity)): 15 µg/mL (≈ 46.8 µM)
EC50 [6]: > 100 µg/mL
